For 30 compounds, AC50 results are on record in patent US20250171438A1 (Agios Pharmaceuticals, Inc., priority 2022, published 2025).

Some results are limits rather than exact numbers.

One experiment has as its target T1, human PAH with the R408W mutation (Homo sapiens, UniProt P00439, R408W).
T1 construct: expressed in transfected cells
T1 sequence (P00439 1-452 R408W): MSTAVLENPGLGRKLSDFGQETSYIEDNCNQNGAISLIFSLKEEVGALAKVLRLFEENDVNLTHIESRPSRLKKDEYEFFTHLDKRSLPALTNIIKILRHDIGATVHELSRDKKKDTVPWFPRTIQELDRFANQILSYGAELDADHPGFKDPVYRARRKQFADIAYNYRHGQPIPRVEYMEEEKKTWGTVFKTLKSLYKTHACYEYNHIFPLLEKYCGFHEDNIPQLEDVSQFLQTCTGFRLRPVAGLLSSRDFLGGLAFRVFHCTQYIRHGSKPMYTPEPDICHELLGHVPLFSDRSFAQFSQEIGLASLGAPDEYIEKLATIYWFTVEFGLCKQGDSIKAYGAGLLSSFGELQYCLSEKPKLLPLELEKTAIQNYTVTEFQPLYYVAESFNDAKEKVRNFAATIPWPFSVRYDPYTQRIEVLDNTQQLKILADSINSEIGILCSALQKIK
Description: Cell Based Phenylalanine Flux Assay. The arrangement: scale not given here. Conditions: A375 cells expressing human R408W PAH; 24 hrs compound incubation; 13C-Tyrosine by LC-MS; average where tested multiple times; read-out: AC50.
With `Cc1ncoc1C(=O)N1C[C@H](C)c2[nH]cnc2[C@@H]1c1nc2ccccc2s1` [Example 1545, ((4R,7S)-4-(benzo[d]thiazol-2-yl)-7-methyl-1,4,6,7-tetrahydro-5H-imidazo[4,5-c]pyridin-5-yl)(4-methyloxazol-5-yl)methanone], the AC50 is > 5 µM.

Turning to `O=C(CC1CC1)N1CCc2[nH]cnc2[C@H]1c1nc2ccccc2[nH]1` [Example 931, (S)-1-(4-(1H-benzo[d]imidazol-2-yl)-6,7-dihydro-1H-imidazo[4,5-c]pyridin-5(4H)-yl)-2-cyclopropylethanone], the AC50 was < 0.5 µM. Still for that read-out and setting: the same measure for `O=C(c1ncc(Cl)s1)N1CCc2[nH]cnc2[C@H]1c1nc2ccccc2[nH]1` [Example 921, (S)-(4-(1H-benzo[d]imidazol-2-yl)-6,7-dihydro-1H-imidazo[4,5-c]pyridin-5(4H)-yl)(5-chlorothiazol-2-yl)methanone]: 0.5 to 1 µM; for `Nc1cnc(N2CCc3[nH]cnc3[C@H]2c2nc3ccccc3s2)nc1` (single isomer, unassigned) [Example 1468]: 0.5 to 1 µM; for `O=C(c1cnn2c(Br)cccc12)N1CCc2[nH]cnc2[C@H]1c1nc2ccccc2s1` [Example 1069]: 0.5 to 1 µM. On the same count and under the same terms, the same measure for `CC(C)(C)CC(=O)N1CCc2[nH]cnc2[C@H]1c1nc2ccccc2[nH]1` [Example 930, (S)-1-(4-(1H-benzo[d]imidazol-2-yl)-6,7-dihydro-1H-imidazo[4,5-c]pyridin-5(4H)-yl)-3,3-dimethylbutan-1-one]: < 0.5 µM; for `O=C(c1nnc(-c2cn[nH]c2)o1)N1CCc2[nH]cnc2[C@H]1c1nc2c(F)cccc2s1` [Example 1863]: 0.5 to 1 µM; for `O=C(c1ccon1)N1CCc2[nH]cnc2[C@@H]1c1nc2ccc(Br)cc2[nH]1` [Example 982, (R)-(4-(6-bromo-1H-benzo[d]imidazol-2-yl)-6,7-dihydro-1H-imidazo[4,5-c]pyridin-5(4H)-yl)(isoxazol-3-yl)methanone]: 1 to 5 µM. Consider `Cc1c(-c2nnc(C(=O)N3CCc4[nH]cnc4[C@H]3c3nc4ccccc4s3)o2)cnn1C` [Example 1845], for which the AC50 is < 0.5 µM. As to `COc1cccc(CCCC(=O)N2CCc3[nH]cnc3[C@H]2c2nc3ccccc3s2)c1` [Example 1013], the AC50 was 0.5 to 1 µM. Regarding `Cn1nc(C(F)(F)F)cc1C(=O)N1CCc2[nH]cnc2[C@H]1c1nc2c(F)cccc2s1` [Example 1787, (S)-(4-(4-fluorobenzo[d]thiazol-2-yl)-6,7-dihydro-1H-imidazo[4,5-c]pyridin-5(4H)-yl)(1-methyl-3-(trifluoromethyl)-1H-pyrazol-5-yl)methanone], the concentration at half-maximal activity (AC50) was in the range of 1 to 5 µM. On the same count and under the same terms, with `O=C(CCC1CCCC1)N1CCc2[nH]cnc2[C@H]1c1nc2ccccc2[nH]1` [Example 913, (S)-1-(4-(1H-benzo[d]imidazol-2-yl)-6,7-dihydro-1H-imidazo[4,5-c]pyridin-5(4H)-yl)-3-cyclopentylpropan-1-one] the figure was 0.5 to 1 µM; with `N#Cc1ccn2ncc(C(=O)N3CCc4[nH]cnc4[C@@H]3c3nc4ccccc4s3)c2c1` [Example 1086, (R)-3-(4-(benzo[d]thiazol-2-yl)-4,5,6,7-tetrahydro-1H-imidazo[4,5-c]pyridine-5-carbonyl)pyrazolo[1,5-a]pyridine-5-carbonitrile], 1 to 5 µM.

For `O=C(c1ocnc1CF)N1CCc2[nH]cnc2[C@@H]1c1nc2c(F)cccc2s1` [Example 2042, (R)-(4-(4-fluorobenzo[d]thiazol-2-yl)-6,7-dihydro-1H-imidazo[4,5-c]pyridin-5(4H)-yl)(4-(fluoromethyl)oxazol-5-yl)methanone], the AC50 was 1 to 5 µM. Turning to `O=C(CCC1CC1)N1CCc2nc[nH]c2[C@@H]1c1nc2c(F)cccc2s1` [Example 1114, (R)-3-cyclopropyl-1-(4-(4-fluorobenzo[d]thiazol-2-yl)-6,7-dihydro-3H-imidazo[4,5-c]pyridin-5(4H)-yl)propan-1-one], the concentration at half-maximal activity (AC50) is > 5 µM. Consider `Cc1ccc(-c2nnc(C(=O)N3CCc4[nH]cnc4[C@@H]3c3nc4c(F)cccc4s3)o2)nc1` [Example 1903, (R)-(4-(4-fluorobenzo[d]thiazol-2-yl)-6,7-dihydro-1H-imidazo[4,5-c]pyridin-5(4H)-yl)(5-(5-methylpyridin-2-yl)-1,3,4-oxadiazol-2-yl)methanone], for which the half-maximal activity concentration (AC50) was in the range of 0.5 to 1 µM. Consider `CC(F)(F)c1ncc(C(=O)N2CCc3[nH]cnc3[C@@H]2c2nc3c(F)cccc3s2)s1` [Example 1514, (R)-(2-(1,1-difluoroethyl)thiazol-5-yl)(4-(4-fluorobenzo[d]thiazol-2-yl)-6,7-dihydro-1H-imidazo[4,5-c]pyridin-5(4H)-yl)methanone], for which the AC50 was in the range of 1 to 5 µM. Regarding `CN(C)CCc1nc(C(F)(F)F)c(C(=O)N2CCCc3[nH]cnc3[C@H]2c2nc3ccccc3s2)o1` (single isomer, unassigned) [Example 2125], the AC50 fell in the range of 0.5 to 1 µM.

For the compound `Cn1nc(C(C)(C)C#N)nc1C(=O)N1CCc2[nH]cnc2[C@@H]1c1nc2c(F)cccc2s1` [Example 2048, (R)-2-(5-(4-(4-fluorobenzo[d]thiazol-2-yl)-4,5,6,7-tetrahydro-1H-imidazo[4,5-c]pyridine-5-carbonyl)-1-methyl-1H-1,2,4-triazol-3-yl)-2-methylpropanenitrile], the concentration at half-maximal activity (AC50) was in the range of 1 to 5 µM. For the compound `COCc1ccc2c(C(=O)N3CCc4[nH]cnc4[C@@H]3c3nc4ccccc4s3)cnn2c1` [Example 1310, (R)-(4-(benzo[d]thiazol-2-yl)-6,7-dihydro-1H-imidazo[4,5-c]pyridin-5(4H)-yl)(6-(methoxymethyl)pyrazolo[1,5-a]pyridin-3-yl)methanone], the concentration at half-maximal activity (AC50) was > 5 µM. Same read-out and setting: with `CC(O)(c1nc(C(F)(F)F)c(C(=O)N2CCc3[nH]cnc3[C@@H]2c2nc3ccccc3s2)o1)C1CC1` (single isomer, unassigned) [Example 1563] the figure was < 0.5 µM.

Consider `O=C(c1nnc(-c2ccccn2)o1)N1CCc2[nH]cnc2[C@@H]1c1nc2c(F)cccc2s1` [Example 1601, (R)-(4-(4-fluorobenzo[d]thiazol-2-yl)-6,7-dihydro-1H-imidazo[4,5-c]pyridin-5(4H)-yl)(5-(pyridin-2-yl)-1,3,4-oxadiazol-2-yl)methanone], for which the AC50 was in the range of 0.5 to 1 µM. For the compound `O=C(C1CCC1)N1CCc2[nH]cnc2[C@H]1c1nc2ccccc2s1` [Example 1153], the concentration at half-maximal activity (AC50) was < 0.5 µM.

Staying with this experiment, now noted: A375 cells expressing human R408W PAH; 24 hrs with compound; 13C-Tyrosine by LC-MS; average where tested multiple times.
`COCc1ccc2c(C(=O)N3CCc4[nH]cnc4C3c3nc4ccccc4s3)c(C(F)F)nn2c1` (stereo not drawn): the AC50 entry is listed as “E, E”.

Still in this experiment, the particulars now being: A375 cells expressing human R408W PAH; 24 hrs with compound; 13C-Tyrosine by LC-MS; average where tested multiple times; read-out: AC50.
Consider `Cn1ncc(C(=O)N2CCc3[nH]cnc3C2c2nc3c(C(F)(F)F)cccc3s2)c1Cl` (stereo not drawn), for which the concentration at half-maximal activity (AC50) lay within 1 to 5 µM.

As to `Cn1nc(Br)nc1C(=O)N1CCc2[nH]cnc2C1c1nc2c(F)cccc2s1` (stereo not drawn), the AC50 lay within 1 to 5 µM.

As to `O=C(c1cnn2cc(Cl)ccc12)N1CCc2[nH]cnc2C1c1nc2ccc(F)cc2s1` (stereo not drawn), the half-maximal activity concentration (AC50) was > 5 µM. Still for that read-out and setting: the same measure for `Cc1nc(C(C)(C)O)oc1C(=O)N1CC2(CC2)c2[nH]cnc2C1c1nc2ccccc2s1` (stereo not drawn): > 5 µM; for `Cc1nnc(C(=O)N2CCc3[nH]cnc3C2c2nc3cc(F)ccc3s2)s1` (stereo not drawn): 1 to 5 µM; for `O=C(Cc1noc2ccccc12)N1CCc2[nH]cnc2C1c1nc2ccccc2[nH]1` (stereo not drawn): > 5 µM.

A word on the AC50: it is the concentration at which the activity in the assay is half-maximal.
